ChEMBL document CHEMBL2417513, “Selective activity of 2,4-diaryl-1,2,3,4-tetrahydroquinolines on Trypanosoma cruzi epimastigotes and amastigotes expressing β-galactosidase” (Bioorg Med Chem Lett, 2013)

Columns and labels:
[1] = Cytotoxicity against mouse NCTC-929 cells after 48 hrs by resazurin based fluorescence assay; assay type: cell-based; details: for LC50: nctc-929, 48 h; for CC50 at 48 h: NCTC-929 cells, read-out: LC50
Trypanosoma cruzi [2] = experiment: Antiparasitic activity against epimastigotes of Trypanosoma cruzi CL Brener expressing Escherichia coli lacZ gene […] assessed as parasite growth inhibition at 32 uM after 72 hrs by colorimetric assay; assay type: functional; set-up: scale not given: the % may be the effect or the level left
Trypanosoma cruzi [3] = experiment: Antiparasitic activity against epimastigotes of Trypanosoma cruzi CL Brener expressing Escherichia coli lacZ gene […] assessed as parasite growth inhibition after 72 hrs by colorimetric assay; assay type: functional, organism-based
[4] = Cytotoxicity against mouse NCTC-929 cells at 256 uM after 48 hrs by resazurin based fluorescence assay; assay type: cell-based; details: nctc-929, 48 h
[5] = Selectivity index, ratio of LC50 for mouse NCTC-929 cells to IC50 for epimastigotes of Trypanosoma cruzi CL Brener; assay type: toxicity, cell-based; details: read-out: Ratio LC50/IC50
Trypanosoma cruzi [6] = experiment: Antiparasitic activity against amastigotes of Trypanosoma cruzi CL Brener expressing Escherichia coli lacZ gene infected in mouse NCTC-929 cells assessed as parasite growth inhibition at 32 uM after 7 days by colorimetric assay; assay type: functional; set-up: scale not given: the % may be the effect or the level left
Trypanosoma cruzi [7] = experiment: Antiparasitic activity against amastigotes of Trypanosoma cruzi CL Brener expressing Escherichia coli lacZ gene infected in mouse NCTC-929 cells assessed as parasite growth inhibition at 16 uM after 7 days by colorimetric assay; assay type: functional; set-up: scale not given: the % may be the effect or the level left
Trypanosoma cruzi [8] = experiment: Antiparasitic activity against amastigotes of Trypanosoma cruzi CL Brener expressing Escherichia coli lacZ gene infected in mouse NCTC-929 cells assessed as parasite growth inhibition at 8 uM after 7 days by colorimetric assay; assay type: functional; set-up: scale not given: the % may be the effect or the level left
Trypanosoma cruzi [9] = experiment: Antiparasitic activity against amastigotes of Trypanosoma cruzi CL Brener expressing Escherichia coli lacZ gene infected in mouse NCTC-929 cells assessed as parasite growth inhibition at 4 uM after 7 days by colorimetric assay; assay type: functional; set-up: scale not given: the % may be the effect or the level left
Trypanosoma cruzi [10] = experiment: Antiparasitic activity against amastigotes of Trypanosoma cruzi CL Brener expressing Escherichia coli lacZ gene infected in mouse NCTC-929 cells assessed as parasite growth inhibition at 2 uM after 7 days by colorimetric assay; assay type: functional; set-up: scale not given: the % may be the effect or the level left
Trypanosoma cruzi [11] = experiment: Antiparasitic activity against amastigotes of Trypanosoma cruzi CL Brener expressing Escherichia coli lacZ gene infected in mouse NCTC-929 cells assessed as parasite growth inhibition after 7 days by colorimetric assay; assay type: functional, organism-based; details: NCTC-929, 168 h
[12] = Selectivity index, ratio of LC50 for mouse NCTC-929 cells to IC50 for amastigotes of Trypanosoma cruzi CL Brener; assay type: toxicity, cell-based; details: read-out: Ratio LC50/IC50
Trypanosoma cruzi [13] = experiment: Antiparasitic activity against amastigotes of Trypanosoma cruzi CL Brener expressing Escherichia coli lacZ gene infected in mouse NCTC-929 cells assessed as parasite growth inhibition at 1 uM after 7 days by colorimetric assay; assay type: functional; set-up: scale not given: the % may be the effect or the level left
Trypanosoma cruzi [14] = experiment: Antiparasitic activity against amastigotes of Trypanosoma cruzi CL Brener expressing Escherichia coli lacZ gene infected in mouse NCTC-929 cells assessed as parasite growth inhibition at 0.5 uM after 7 days by colorimetric assay; assay type: functional; set-up: scale not given: the % may be the effect or the level left

| SMILES | LC50 [1] | Activity (Trypanosoma cruzi [2]) | IC50 (Trypanosoma cruzi [3]) | Activity [4] | CC50 at 48 h [1] | selectivity ratio [5] | Activity (Trypanosoma cruzi [6]) | Activity (Trypanosoma cruzi [7]) | Activity (Trypanosoma cruzi [8]) | Activity (Trypanosoma cruzi [9]) | Activity (Trypanosoma cruzi [10]) | IC50 (Trypanosoma cruzi [11]) | selectivity ratio [12] | Activity (Trypanosoma cruzi [13]) | Activity (Trypanosoma cruzi [14]) |
| --- | --- | --- | --- | --- | --- | --- | --- | --- | --- | --- | --- | --- | --- | --- | --- |
| COc1ccc([C@@H]2c3ccc([N+](=O)[O-])cc3N[C@H](c3ccccc3)[C@H]2C)cc1 | ND(Insoluble) | 83.67% | < 8 µM | 8.43% |  |  |  |  |  |  |  |  |  |  |  |
| COc1ccc([C@@H]2c3cc(N)ccc3N[C@H](c3ccccc3)[C@H]2C)cc1 |  | 97.06% | < 8 µM | 85.85% | 9.56 µM | > 1.19 |  |  |  |  |  |  |  |  |  |
| COc1ccc([C@@H]2c3cccc(N)c3N[C@H](c3ccccc3)[C@H]2C)cc1 | ND(Insoluble) | 79.95% | < 8 µM | 66.33% |  |  |  |  |  |  |  |  |  |  |  |
| COc1ccc([C@@H]2c3ccccc3N(Cc3ccccc3)C[C@H]2C)cc1 | ND(Insoluble) | 14.08% |  | 42.15% |  |  |  |  |  |  |  |  |  |  |  |
| COc1ccc([C@@H]2c3cc(OC)ccc3N(Cc3ccccc3)C[C@H]2C)cc1 |  | 88.64% | 7.67 µM | 25.02% | > 256 µM | > 33.4 | 100% | 100% | 100% | 46.33% | 25.86% | 4.27 µM | > 59.9 |  |  |
| COc1ccc([C@@H]2c3cc(Cl)ccc3N(Cc3ccccc3)C[C@H]2C)cc1 |  | 100% | 6.39 µM | ND(Insoluble) | 23.6 µM | 3.69 |  |  |  |  |  |  |  |  |  |
| COc1cc([C@@H]2c3cccc([N+](=O)[O-])c3N[C@H](c3ccccc3)[C@H]2C)ccc1O |  | 86.78% | < 8 µM | 84.75% | < 8 µM |  |  |  |  |  |  |  |  |  |  |
| COc1cc([C@@H]2c3ccccc3N[C@H](c3ccccc3)[C@H]2C)ccc1O |  | 86.23% | < 8 µM | 84.12% | 13 µM | > 1.63 |  |  |  |  |  |  |  |  |  |
| COc1cc([C@@H]2c3cccc(C#N)c3N[C@H](c3ccccc3)[C@H]2C)ccc1O |  | 95.56% | 8.29 µM | 86.23% | 7.75 µM | 0.93 |  |  |  |  |  |  |  |  |  |
| COc1cc([C@@H]2c3cccc([N+](=O)[O-])c3N[C@H](c3ccc(O)cc3)[C@H]2C)ccc1O |  | 99.73% | < 8 µM | 85.46% | 14.4 µM | > 1.79 |  |  |  |  |  |  |  |  |  |
| COc1cc([C@@H]2c3cccc(N)c3N[C@H](c3ccccc3)[C@H]2C)ccc1O |  | 98.7% | < 8 µM | 86.9% | < 8 µM |  |  |  |  |  |  |  |  |  |  |
| COc1cc([C@@H]2c3cccc(C#N)c3N[C@H](c3ccc(O)cc3)[C@H]2C)ccc1O |  | 98.75% | < 8 µM | 85.83% | 12.8 µM | 1.59 |  |  |  |  |  |  |  |  |  |
| COc1cc([C@@H]2c3cccc([N+](=O)[O-])c3N[C@H](c3ccc([N+](=O)[O-])cc3)[C@H]2C)ccc1O |  | 92.82% | < 8 µM | 87.71% | < 8 µM |  |  |  |  |  |  |  |  |  |  |
| COc1cc([C@@H]2c3cccc([N+](=O)[O-])c3N[C@H](c3ccccc3[N+](=O)[O-])[C@H]2C)ccc1O |  | 82.19% |  | ND(Insoluble) | 15.9 µM |  |  |  |  |  |  |  |  |  |  |
| COc1cc([C@@H]2c3cccc(C#N)c3N[C@H](c3ccc([N+](=O)[O-])cc3)[C@H]2C)ccc1O |  | 66.81% | 4.38 µM | 48.76% | 213 µM | 48.6 |  |  | 51.5% | 33.77% |  | 7.66 µM | 27.8 |  |  |
| COc1ccc([C@@H]2c3ccccc3N[C@H](c3ccccc3)[C@H]2C)cc1 |  | 95.98% | 5.94 µM | 43.05% | > 256 µM | > 43.1 | 100% | 99.12% | 52.21% |  |  | 7.1 µM | > 36 |  |  |
| CCc1ccc2c(c1)[C@@H](c1ccc(OC)cc1)[C@H](C)[C@@H](c1ccccc1)N2 |  | 95.85% | 3.6 µM | 0% | > 256 µM | > 71.1 | 63.72% | 47.35% | 58.63% | 19.11% |  | 7.13 µM | > 35.9 |  |  |
| COc1ccc([C@@H]2c3cc(OC)ccc3N[C@H](c3ccccc3)[C@H]2C)cc1 |  | 53.99% | < 8 µM | 0% | > 256 µM | > 32 |  | 60.71% | 58.12% |  |  | < 8 µM | > 32 |  |  |
| COc1ccc([C@@H]2c3cc([N+](=O)[O-])ccc3N[C@H](c3ccccc3)[C@H]2C)cc1 |  | 76.03% | < 8 µM | ND(Insoluble) | 16 µM | > 2 |  |  |  |  |  |  |  |  |  |
| COc1ccc([C@@H]2c3cc(Cl)ccc3N[C@H](c3ccccc3)[C@H]2C)cc1 | ND(Insoluble) | 88.62% | 7.86 µM | 11.72% |  |  |  |  |  |  |  |  |  |  |  |
| COc1ccc([C@@H]2c3cccc([N+](=O)[O-])c3N[C@H](c3ccccc3)[C@H]2C)cc1 |  | 87.22% |  | ND(Insoluble) | 28.4 µM |  |  |  |  |  |  |  |  |  |  |
| COc1ccc([C@@H]2c3c(cccc3[N+](=O)[O-])N[C@H](c3ccccc3)[C@H]2C)cc1 |  | 78.69% | < 8 µM | ND(Insoluble) | 27.6 µM | > 3.45 |  |  |  |  |  |  |  |  |  |
| O=C(Cn1ccnc1[N+](=O)[O-])NCc1ccccc1 [BENZNIDAZOLE] |  | 66.24% | 27.1 µM | 17.38% | > 256 µM | > 9.44 | 100% | 100% | 96.63% | 74.71% | 64.37% | 0.8 µM | > 320 | 55.64% | 41.64% |
